These are literature values, as cited in patent publication US20050209315A1, “Bioavailable nutritional supplement and method of treatment of malabsorption” (priority 2004, published 2005).

For this data set the following is noted: relative to alpha tocopherol.

As for alpha-tocotrienol [Alpha tocotrienol], the “more antioxidant activity than alpha tocopherol” value is 40-60%.
